Data reported in the supplement of paper PMC10307832.

Experiments:
Experiment in all cases: relative viability (nuclei count vs DMSO), 5 days (fraction); higher = more cells survive
4EGI-1 + Linsitinib = compound: O=C(O)C(Cc1ccccc1[N+](=O)[O-])=NNc1nc(-c2ccc(Cl)c(Cl)c2)cs1 (mixture of isomers) [4EGI-1] + C[C@]1(O)C[C@@H](c2nc(-c3ccc4ccc(-c5ccccc5)nc4c3)c3c(N)nccn32)C1 [Linsitinib] (partner 1 µM)
Procedure, shortened: (§1)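 Values are medians from duplicate plates. Each reflects relative viability, defined as the nuclei count of treated wells over that of vehicle wells. Lung cancer cell lines in 1536-well plates were pin-tool dosed one day after seeding with one drug alone or with a fixed anchor-drug dose plus five library-drug doses (not always all listed) in √10 steps, then fixed, stained and imaged at 4× after 5 days.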

XMD8-85 + Decitabine = compound: CN1CCN(CC1)C2=CC(=C(C=C2)NC3=NC=C4C(=N3)N(C5=CC=CC=C5C(=O)N4C)C)OC [XMD8-85] + Nc1ncn([C@H]2C[C@H](O)[C@@H](CO)O2)c(=O)n1 [Decitabine] (partner 2 µM)
Procedure, shortened: as §1

XMD8-85 + Luminespib = compound: CN1CCN(CC1)C2=CC(=C(C=C2)NC3=NC=C4C(=N3)N(C5=CC=CC=C5C(=O)N4C)C)OC [XMD8-85] + CCNC(=O)c1noc(-c2cc(C(C)C)c(O)cc2O)c1-c1ccc(CN2CCOCC2)cc1 [Luminespib] (partner 0.01 µM)
Procedure, shortened: as §1

XMD8-85 + Phenformin = compound: CN1CCN(CC1)C2=CC(=C(C=C2)NC3=NC=C4C(=N3)N(C5=CC=CC=C5C(=O)N4C)C)OC [XMD8-85] + N=C(N)NC(=N)NCCc1ccccc1 [Phenformin] (partner 250 µM)
Procedure, shortened: as §1

Cell Line	relative viability (4EGI-1 + Linsitinib; first compound 0.5 µM)	relative viability (4EGI-1 + Linsitinib; first compound 1.581 µM)	relative viability (4EGI-1 + Linsitinib; first compound 5 µM)	relative viability (4EGI-1 + Linsitinib; first compound 15.81 µM)	relative viability (4EGI-1 + Linsitinib; first compound 50 µM)	relative viability (XMD8-85 + Decitabine; first compound 0.08 µM)	relative viability (XMD8-85 + Decitabine; first compound 0.253 µM)	relative viability (XMD8-85 + Decitabine; first compound 2.53 µM)	relative viability (XMD8-85 + Decitabine; first compound 8 µM)	relative viability (XMD8-85 + Luminespib; first compound 0.08 µM)	relative viability (XMD8-85 + Luminespib; first compound 0.253 µM)	relative viability (XMD8-85 + Luminespib; first compound 2.53 µM)	relative viability (XMD8-85 + Luminespib; first compound 8 µM)	relative viability (XMD8-85 + Phenformin; first compound 0.08 µM)	relative viability (XMD8-85 + Phenformin; first compound 0.253 µM)	relative viability (XMD8-85 + Phenformin; first compound 0.8 µM)	relative viability (XMD8-85 + Phenformin; first compound 2.53 µM)	relative viability (XMD8-85 + Phenformin; first compound 8 µM)	relative viability (XMD8-85 + Decitabine; first compound 0.8 µM)	relative viability (XMD8-85 + Luminespib; first compound 0.8 µM)
NCI-H596	1.06	0.818	1.09	1.02	0.815	0.941	1.01	2	0.873	0.885	1.02	0.875	0.605	0.571	0.749	0.636	0.709	0.8	–	–
NCI-H2087	0.983	0.983	1	0.66	0.307	0.311	0.262	0.32	0.195	0.182	0.167	0.118	0.175	0.495	0.441	0.562	0.396	0.389	0.297	0.159
NCI-H1395	1.29	–	1.52	0.874	0.534	0.609	0.762	0.701	0.716	0.784	0.603	0.684	0.482	0.483	0.421	0.447	0.414	0.409	0.722	0.731
NCI-H460	0.777	–	1.07	0.182	0.0218	0.442	0.506	0.566	0.396	0.0362	0.0282	0.0262	0.0291	0.377	0.59	0.545	0.578	0.1	0.503	0.0359
HOP-62	1.19	–	1.16	1.03	0.707	0.235	0.199	0.228	0.236	0.932	–	0.762	0.683	0.595	0.535	0.659	0.683	0.469	0.186	0.911
LC-2-ad	0.897	0.764	0.83	0.432	0.13	0.734	0.774	0.772	0.514	1.26	0.996	0.874	0.706	0.592	0.55	0.611	0.595	–	0.811	1.22
EKVX	1.12	0.859	0.964	0.755	0.882	0.536	0.32	0.61	0.328	0.911	0.905	0.877	0.876	0.226	0.218	0.228	0.245	0.202	0.33	0.588
LCLC-103H	1.09	0.994	0.955	1.03	0.887	0.789	0.763	0.688	0.605	0.96	0.941	1.12	0.704	0.329	0.34	0.36	0.372	0.303	0.713	0.864
NCI-H1651	1.2	0.805	0.982	0.808	0.249	0.595	0.592	0.67	0.506	0.785	1.08	0.667	0.46	0.349	0.312	0.265	0.366	0.298	0.601	0.774
SK-LU-1	1.31	1.35	1.46	1.14	0.283	0.607	0.58	0.705	0.549	0.193	0.207	0.191	0.165	0.382	0.59	0.653	0.68	0.467	0.61	0.207
NCI-H2405	1.14	0.889	1.02	1.02	0.536	0.672	0.765	0.854	0.75	0.63	0.727	0.704	0.643	0.391	0.391	0.366	0.381	0.228	0.705	0.625
HCC-15	0.884	0.836	0.865	0.728	0.432	0.537	0.642	0.749	0.517	0.481	0.479	0.336	0.302	0.465	0.415	0.451	0.468	0.265	0.782	0.295
COR-L23	1.05	0.814	0.918	0.492	0.162	0.513	0.397	0.458	0.409	0.504	0.589	–	0.487	0.384	0.452	0.484	0.476	0.366	0.506	0.963
PC-3 [JPC-3]	0.96	0.862	0.96	–	0.889	0.93	–	1.06	0.745	0.725	0.805	0.82	0.543	0.431	0.446	0.467	0.537	0.514	0.8	0.663
A-427	1.09	0.93	1.03	1.07	0.618	0.601	0.596	0.573	0.539	1.06	1.08	1.1	0.669	0.278	0.268	0.346	0.335	0.208	0.546	1.25
NCI-H1755	0.966	0.99	0.958	0.932	0.572	0.754	0.677	0.764	0.724	0.672	0.414	0.482	0.342	0.608	0.65	0.429	0.581	0.495	0.714	0.344
